# Measured values from patent publication US6375999B1, “Methods for treating potatoes” (priority 1993, dated 2002).
# Assays:
# freshly dug potatoes = test: outdoor pile of injured, freshly dug potatoes sprayed with pure 1,4-dimethyl naphthalene; assay type: in vivo, potato; conditions: outdoors, humidity about 40%, no control sample
# Excerpt: A pile of freshly dug potatoes having considerable injuries such as cuts, scrapes and abrasions were sprayed with pure 1,4-dimethyl naphthalene. The pile was located outdoors with a humidity condition of about 40%. […] Although a control sample wasn't used, potatoes with such a large quantity of cuts, abrasions and the like in an exposed, low humidity environment would typically show minimal healing and a considerable amount of rot.
# stored potatoes [1] = test: low humidity storage after early treatment with 1,4-DMN; assay type: in vivo, potato; conditions: storage conditions of 85%, and less
# Excerpt: No approved method exists for treating silver scruff. Effective fungicides are not approved for treatment of potatoes. […] A disadvantage of low humidity storage is that such potatoes dehydrate and soften. This causes the potatoes to be less acceptable for certain markets and results in some loss of product.
# [2] = tested on: potatoes which have started to sprout; test: treatment of potatoes which have started to sprout; assay type: in vivo, potato; conditions: certain types of potatoes which have started to sprout
# Excerpt: For example, in treating a potato storage facility with liquid sprout inhibitor such as an isomer of DMN, especially the 1,4 and 1,6 isomers of DMN, it is only necessary to have a very low concentration of DMN in the atmosphere inasmuch as the quantity of DMN in a potato is very low so that only very minor quantities of DMN respire or exit the potato. Thus, only a very low partial pressure for DMN is created in a static air space surrounding a potato by respiration. The purpose of DMN in the atmosphere surrounding potatoes is to stop or reduce the exiting of DMN from the potato. Once DMN exiting starts, it is believed that such departure initiates the process which leads to sprouting. […] Thus, in applying liquid sprout inhibitors which are found natively in potatoes it is generally preferred to initiate treatment prior to the onset of sprouting and preferably prior to any considerable exiting of DMN, for example, from the stored potato.
# Although, as indicated in the Plant patent, CIPC is not applied until after suberization (wound healing). DMN is preferably applied initially shortly after the potatoes have been put into the facility. […] Also, unlike CIPC, DMN is not a foreign material to a potato.
# stored potatoes [3] = conditions: early application to stored potatoes; cited from earlier work
compound,measurement,setting,value
"Cc1ccc(C)c2ccccc12 [1,4-dimethyl naphthalene]",evidence of rot in injured potatoes,freshly dug potatoes; about two days after spraying,only a small portion of the injured potatoes showing any evidence of rot
same,time after spraying until suberization processes appeared to be complete,freshly dug potatoes; pure compound sprayed,two
same,hydration and firmness of potatoes in low humidity storage,stored potatoes [1],stay hydrated and firm
"CC(C)OC(=O)Nc1cccc(Cl)c1 [CIPC, Chloroisopropyl-N-carbamate]",effect on sprouting once sprouting has been initiated,[2],generally retard potato sprouting even after sprouting has been initiated
same,effect on suberization,stored potatoes [3],tends to retard suberization
